Assay results reported in patent US20220332708A1 (Cytokinetics, Inc., priority 2021, published 2022).

Each compound was assayed on Bovine cardiac myofibrils (assay: Dose-dependent myofibril ATPase modulation (calcium-buffered, pyruvate kinase and lactate dehydrogenase-coupled ATPase assay at pCa25)). Details: concentration at which ATPase activity was 1.4-fold higher than the bottom of the dose curve, mean of a minimum of two independent tests.
Type: biochemical
Experimental: In Vitro Model of Dose-Dependent Myofibril ATPase Modulation
Dose responses were measured using a calcium-buffered, pyruvate kinase and lactate dehydrogenase-coupled ATPase assay containing the following reagents (concentrations expressed are final assay concentrations): Potassium PIPES (12 mM), MgCl2 (2 mM), ATP (1 mM), DTT (1 mM), BSA (0.1 mg/ml), NADH (0.5 mM), PEP (1.5 mM), pyruvate kinase (4 U/ml), lactate dehydrogenase (8 U/ml), and antifoam (90 ppm). The pH was adjusted to 6.80 at 22° C. by addition of potassium hydroxide. Calcium levels were controlled by a buffering system containing 0.6 mM EGTA and varying concentrations of calcium, to achieve a free calcium concentration of 1×10^−4 M to 1×10^−8 M.
Bovine cardiac myofibrils were obtained by homogenizing the appropriate tissue in the presence of detergent. Such treatment removes membranes and majority of soluble cytoplasmic proteins but leaves intact cardiac sarcomeric acto-myosin apparatus. Concentrations of myofibrils were adjusted to achieve the necessary rate of ATP hydrolysis (typically 0.25-1.0 mg/ml).
Chemical entity dose responses were measured at the calcium concentration corresponding to 25% of maximal ATPase activity (pCa25), so a preliminary experiment was performed to test the response of the ATPase activity to free calcium concentrations in the range of 1×10^−4 M to 1×10^−8 M. Subsequently, the assay mixture was adjusted to the pCa25. Assays were performed by first preparing a dilution series of test chemical entity, each with an assay mixture containing potassium Pipes, MgCl2, BSA, DTT, pyruvate kinase, lactate dehydrogenase, myofibrils, antifoam, EGTA, CaCl2), and water. The assay was started by adding an equal volume of solution containing potassium Pipes, MgCl2, BSA, DTT, ATP, NADH, PEP, antifoam, and water. ATP hydrolysis was monitored by absorbance at 340 nm. The resulting dose response curve was fit by the 4 parameter equation y=Bottom+((Top−Bottom)/(1+((EC50/X)^Hill))). […] AC1.4 values reported in the table below are mean values based on a minimum of two independent tests.

SMILES | AC1.4 [µM]
CNc1ccc(S(=O)(=O)Nc2ccc(N3C[C@H](C)C[C@@H](C)C3)nc2)cc1C#N (racemic) [Compound 1, 3-Cyano-N-(6-(trans-3,5-dimethylpiperidin-1-yl)pyridin-3-yl)-4-(methylamino) benzenesulfonamide] | 14.3998
C[C@@H]1C[C@@H](C)CN(c2ccc(NS(=O)(=O)c3ccc(N(C)C)c(C#N)c3)cn2)C1 (racemic) [Compound 2, 3-Cyano-4-(dimethylamino)-N-(6-(trans-3,5-dimethylpiperidin-l-yl)pyridin-3-yl)benzenesulfonamide] | 12.21
Cc1nc2cc(C)c(S(=O)(=O)Nc3ccc(N4C[C@@H](C)C[C@H](C)C4)nc3)cc2c(=O)[nH]1 (racemic) [Compound 9, N-(6-((trans)-3,5-dimethylpiperidin-1-yl)pyridin-3-yl)-2,7-dimethyl-4-oxo-3,4-dihydroquinazoline-6-sulfonamide] | 9.2363
Cc1[nH]c(S(=O)(=O)N[C@@H]2Cc3cc(Cl)c(Cl)cc3[C@H]2O)cc1C(=O)N1CC(C)(C#N)C1 (racemic) [Compound 99] | 0.2635
CNc1ccc(S(=O)(=O)Nc2ccc(N3C[C@H](C)C[C@@H](C)C3)nc2)cc1C(N)=O (relative stereo) [Compound 3, 5-(N-(6-(trans-3,5-dimethylpiperidin-1-yl)pyridin-3-yl)sulfamoyl)-2-(methylamino)benzamide] | 11.94
CNc1cc2c(cc1S(=O)(=O)N[C@H]1CC[C@@H](Nc3ccccc3)C1)c(=O)[nH]c(=O)n2C (relative stereo) [Compound 19, 1-Methyl-7-(methylamino)-2,4-dioxo-N-((cis)-3-(phenylamino)cyclopentyl)-1,2,3,4-tetrahydroquinazoline-6-sulfonamide] | 0.6379
CNc1cc2nc(C)[nH]c(=O)c2cc1S(=O)(=O)N[C@@H]1CCc2c([nH]c3ccccc23)C1 (single isomer, unassigned) [Compound 33] | 0.0762
Cc1[nH]c(S(=O)(=O)N[C@]2(Cc3ccc(Cl)cc3)CCOC2)cc1C(=O)N1CC(C)(C#N)C1 (single isomer, unassigned) [Compound 63] | 0.081
Cc1[nH]c(S(=O)(=O)N[C@]2(Cc3ccc(Cl)cc3)CCOC2)cc1C(=O)NCC(F)F (single isomer, unassigned) [Compound 65] | 3.2638
Cc1[nH]c(S(=O)(=O)N[C@@H]2Cc3ccc(C(F)(F)F)cc3C2)cc1C(=O)N1CC(C)(C#N)C1 (single isomer, unassigned) [Compound 76] | 0.1121
Cc1[nH]c(S(=O)(=O)N[C@@H]2Cc3cc(F)c(Cl)cc3C2)cc1C(=O)N1CC(C)(C#N)C1 (single isomer, unassigned) [Compound 83] | 0.06985
Cc1[nH]c(S(=O)(=O)N[C@H]2Cc3cc(F)c(Cl)cc3C2)cc1C(=O)N1CC(C)(C#N)C1 (single isomer, unassigned) [Compound 84] | 0.303
Cc1[nH]c(S(=O)(=O)N[C@H]2Cc3cc(Cl)c(Cl)cc3[C@@]2(C)O)cc1C(=O)N1CC(C)(C#N)C1 (single isomer, unassigned) [Compound 92] | 0.6294
Cc1[nH]c(S(=O)(=O)N[C@H]2COc3cc(Cl)ccc3C2)cc1C(=O)N1CC(C)(C#N)C1 (stereo in doubt) [Compound 16, N-(7-chlorochroman-3-yl)-4-(3-cyano-3-methylazetidine-1-carbonyl)-5-methyl-1H-pyrrole-2-sulfonamide] | 8.4932
CNc1cc2nc(C)[nH]c(=O)c2cc1S(=O)(=O)Nc1ccc(-c2ccccc2)cc1 [Compound 4, N-([1,1′-biphenyl]-4-yl)-2-methyl-7-(methylamino)-4-oxo-3,4-dihydroquinazoline-6-sulfonamide] | 0.1832
Cc1nc2ccc(S(=O)(=O)Nc3ccc(N4C[C@H](C)C[C@@H](C)C4)nc3)cc2c(=O)[nH]1 [Compound 5, N-(6-((3R,5R)-3,5-dimethylpiperidin-1-yl)pyridin-3-yl)-2-methyl-4-oxo-3,4-dihydroquinazoline-6-sulfonamide] | 4.4808

SMILES | AC1.4 [µM]
Cc1nc2cc(OCCN3CCOCC3)c(S(=O)(=O)Nc3ccc(N4C[C@H](C)C[C@@H](C)C4)nc3)cc2c(=O)[nH]1 [Compound 6, N-(6-((3R,5R)-3,5-dimethylpiperidin-1-yl)pyridin-3-yl)-2-methyl-7-(2-morpholinoethoxy)-4-oxo-3,4-dihydroquinazoline-6-sulfonamide] | 0.7385
COc1cc2nc(C)[nH]c(=O)c2cc1S(=O)(=O)Nc1ccc(N2C[C@H](C)C[C@@H](C)C2)nc1 [Compound 7, N-(6-((3R,5R)-3,5-dimethylpiperidin-1-yl)pyridin-3-yl)-7-methoxy-2-methyl-4-oxo-3,4-dihydroquinazoline-6-sulfonamide] | 1.3592
CNc1cc2nc(C)[nH]c(=O)c2cc1S(=O)(=O)Nc1ccc(N2C[C@H](C)C[C@@H](C)C2)nc1 [Compound 8, N-(6-((3R,5R)-3,5-dimethylpiperidin-1-yl)pyridin-3-yl)-2-methyl-7-(methylamino)-4-oxo-3,4-dihydroquinazoline-6-sulfonamide] | 0.6695
CNc1cc2c(cc1S(=O)(=O)NC1CCN(c3ccccc3)CC1)c(=O)[nH]c(=O)n2C [Compound 10, 1-Methyl-7-(methylamino)-2,4-dioxo-N-(1-phenylpiperidin-4-yl)-1,2,3,4-tetrahydroquinazoline-6-sulfonamide] | 2.8354
CNc1cc2nc(C)[nH]c(=O)c2cc1S(=O)(=O)NC1CCN(c2cccc(F)c2)CC1 [Compound 11, N-(1-(3-fluorophenyl)piperidin-4-yl)-2-methyl-7-(methylamino)-4-oxo-3,4-dihydroquinazoline-6-sulfonamide] | 5.252
CNc1cc2c(cc1S(=O)(=O)N[C@H]1CC[C@H](c3ccccc3)CC1)c(=O)[nH]c(=O)n2C [Compound 12] | 1.6528
CNc1cc2c(cc1S(=O)(=O)NCCCNc1ccccc1)c(=O)[nH]c(=O)n2C [Compound 13, 1-Methyl-7-(methylamino)-2,4-dioxo-N-(3-(phenylamino)propyl)-1,2,3,4-tetrahydroquinazoline-6-sulfonamide] | 9.783
CNc1cc2c(cc1S(=O)(=O)N[C@H]1C[C@@H](Nc3cccc(F)c3)C1)c(=O)[nH]c(=O)n2C [Compound 14, N-((cis)-3-((3-fluorophenyl)amino)cyclobutyl)-1-methyl-7-(methylamino)-2,4-dioxo-1,2,3,4-tetrahydroquinazoline-6-sulfonamide] | 0.2006
CNc1cc2nc(C)[nH]c(=O)c2cc1S(=O)(=O)N[C@H]1C[C@@H](Nc2cccc(F)c2)C1 [Compound 15, N-((cis)-3-((3-fluorophenyl)amino)cyclobutyl)-2-methyl-7-(methylamino)-4-oxo-3,4-dihydroquinazoline-6-sulfonamide] | 1.019
CNc1cc2c(cc1S(=O)(=O)N[C@H]1C[C@@H](Nc3ccccc3)C1)c(=O)[nH]c(=O)n2C [Compound 17] | 0.6931
CNc1cc2c(cc1S(=O)(=O)N[C@H]1C[C@@H](Nc3ccccc3F)C1)c(=O)[nH]c(=O)n2C [Compound 18, N-((cis)-3-((2-fluorophenyl)amino)cyclobutyl)-1-methyl-7-(methylamino)-2,4-dioxo-1,2,3,4-tetrahydroquinazoline-6-sulfonamide] | 0.8832
CNc1cc2c(cc1S(=O)(=O)NC1CC(c3ccccc3)C1)c(=O)[nH]c(=O)n2C (centres unmarked) [Compound 20, 1-Methyl-7-(methylamino)-2,4-dioxo-N-(3-phenylcyclobutyl)-1,2,3,4-tetrahydroquinazoline-6-sulfonamide] | 3.9537
CNc1cc2c(cc1S(=O)(=O)NCCc1cc3ccccc3[nH]1)c(=O)[nH]c(=O)n2C [Compound 21] | 4.8236
CNc1cc2c(cc1S(=O)(=O)N[C@H]1[C@@H]3CN(c4cccc(F)c4)C[C@@H]31)c(=O)[nH]c(=O)n2C [Compound 22, N-((1R,5S,6s)-3-(3-Fluorophenyl)-3-azabicyclo[3.1.0]hexan-6-yl)-1-methyl-7-(methylamino)-2,4-dioxo-1,2,3,4-tetrahydroquinazoline-6-sulfonamide] | 0.4479
CNc1cc2c(cc1S(=O)(=O)N[C@]1(C)C[C@H](Nc3cccc(F)c3)C1)c(=O)[nH]c(=O)n2C [Compound 23, N-((cis)-3-((3-fluorophenyl)amino)-1-methylcyclobutyl)-1-methyl-7-(methylamino)-2,4-dioxo-1,2,3,4-tetrahydroquinazoline-6-sulfonamide] | 0.6045
CNc1cc2nc(C)[nH]c(=O)c2cc1S(=O)(=O)NC1CC(c2cccc(F)c2)C1 (centres unmarked) [Compound 24, N-(3-(3-fluorophenyl)cyclobutyl)-2-methyl-7-(methylamino)-4-oxo-3,4-dihydroquinazoline-6-sulfonamide] | 5.6964
